Measured values from patent US7807781B2, “Inhibitors of serine protease activity and their use in methods and compositions for treatment of viral infections” (The Regents of the University of Colorado, priority 1999, dated 2010).

Tests used:
[1] = system: HIV-1 production in U1 cells; assay: U1 monocytic cell assay, LPS-induced HIV-1 p24 antigen; assay type: cell-based; conditions: for p24 antigen: 500 ng/ml LPS, 48 hrs
[2] = system: HIV-1 production in U1 cells; assay: U1 monocytic cell assay, NaCl (hyperosmolarity)-induced HIV-1 p24 antigen; assay type: cell-based

AAT: Alpha-1-antitrypsin purified from the blood of healthy volunteers to single-band homogeneity
p24 antigen ([1]; AAT 1 mg/ml): 1,108±241 pg/ml | p24 antigen ([1]; AAT 2 mg/ml): 913 ± 287 pg/mL | p24 antigen ([1]; AAT 5 mg/ml): 626 ± 257 pg/mL | inhibition of LPS-induced p24 production ([1]; AAT 3 mg/ml): 71% | inhibition of LPS-induced p24 production ([1]; AAT 4 mg/ml): 90% | inhibition of LPS-induced p24 production ([1]; AAT 5 mg/ml): 86% | NaCl-induced 26-fold increase in p24 concentration ([2]; 60 mM NaCl, 5 mg/ml AAT): completely inhibited | mean p24 level ([2]; 60 mM NaCl, AAT 0.1 mg/ml): 11,054±3,231 pg/ml | mean p24 level ([2]; 60 mM NaCl, AAT 0.5 mg/ml): 7,363±485 pg/ml | mean p24 level ([2]; 60 mM NaCl, AAT 1.0 mg/ml): 5,657±48 pg/ml | mean p24 level ([2]; 60 mM NaCl, AAT 3.0 mg/ml): 1,919±594 pg/ml | mean p24 level ([2]; 60 mM NaCl, AAT 4.0 mg/ml): 425 ± 32 pg/mL | mean p24 level ([2]; 60 mM NaCl, AAT 5.0 mg/ml): 266 ± 26 pg/mL | percent inhibition of NaCl-induced p24 ([2]; AAT 3.0 mg/ml): 76% | percent inhibition of NaCl-induced p24 ([2]; AAT 4.0 mg/ml): 98.3% | percent inhibition of NaCl-induced p24 ([2]; AAT 5.0 mg/ml): 100%
